This note sets out measurements from ChEMBL document CHEMBL6092179, “Discovery of CLKs inhibitors for the treatment of non-small cell lung cancer” (Eur J Med Chem, 2024).

For assay [1], the system named is NCI-H1299. Put plainly: Induction of apoptosis in human NCI-H1299 cells assessed as necrotic cells at 2.5 uM incubated for 24 hrs by annexin V-FITC/PI staining based flow cytometric analysis (reference value: 2.28 %). Format: functional. On the technique in general: Flow cytometry measures light scatter and fluorescence of single cells or particles in a stream.

Assay [2] deals with NCI-H1299. Put plainly: Induction of apoptosis in human NCI-H1299 cells assessed as late apoptotic cells at 0.1 uM incubated for 24 hrs by annexin V-FITC/PI staining based flow cytometric analysis (reference value: 2.23 %). Format: functional.
In assay [3] the test system is NCI-H1299. Put plainly: Induction of apoptosis in human NCI-H1299 cells assessed as late apoptotic cells at 2.5 uM incubated for 24 hrs by annexin V-FITC/PI staining based flow cytometric analysis (reference value: 2.23 %). Format: functional.
The target of assay [4] is Serine/threonine-protein kinase mTOR (Homo sapiens) (UniProt P42345). Description: Inhibition of mTOR phosphorylation in human NCI-H1299 cells at 0.1 to 1 uM incubated for 12 hrs by Western blotting analysis. Format: cell-based. To be noted: dose 0.1-1 µM.
In assay [5] the target is Dual specificity protein kinase CLK4 (Homo sapiens, UniProt Q9HAZ1). Put plainly: Inhibition of CLK4 (unknown origin) by ADP-Glo assay. On the technique in general: In ADP-Glo the light output rises with the ADP produced.
Assay [6] has as its system NCI-H1299. Description: Inhibition of AKT phosphorylation in human NCI-H1299 cells at 0.1 to 1 uM incubated for 12 hrs by Western blotting analysis. Particulars: dose 0.1-1 µM. The class given is cell-based.
The test system of assay [7] is NCI-H1299. Put plainly: Induction of apoptosis in human NCI-H1299 cells assessed as necrotic cells at 0.25 uM incubated for 24 hrs by annexin V-FITC/PI staining based flow cytometric analysis (reference value: 2.28 %). Format: functional.
Assay [8] deals with NCI-H1299. Description: Induction of apoptosis in human NCI-H1299 cells assessed as early apoptotic cells at 0.1 uM incubated for 24 hrs by annexin V-FITC/PI staining based flow cytometric analysis (reference value: 0.49 %). Format: functional.
Assay [9] addresses Dual specificity protein kinase CLK1 (Homo sapiens, UniProt P49759). Description: Inhibition of CLK in human NCI-H1299 cells assessed as downregulation of SRSF6 phosphorylation at 0.1 to 1 uM incubated for 1 hr by Western blotting analysis. The class given is cell-based. Particulars: dose 0.1-1 µM.
A further assay concerns HCC827. Description: cells. Particulars: Homo sapiens, HCC827, 48 h.
The subject of assay [10] is NCI-H1299. Description: Induction of autophagy in human NCI-H1299 cells assessed as effect on LC3II protein expression at 0.1 to 1 uM incubated for 48 hrs by Western blotting analysis. The class given is functional, cell-based. To be noted: dose 0.1-1 µM. Background: A western blot detects proteins with antibodies after separation by electrophoresis.
Assay [11] deals with NCI-H1299. Description: cells. Particulars: Homo sapiens, NCI-H1299, 48 h.
Description: Antiproliferative activity against human NCI-H1299 cells assessed as inhibition of cell growth incubated for 48 hrs by MTT assay
Assay [12] addresses Homeodomain-interacting protein kinase 1 (Homo sapiens) (UniProt Q86Z02). Put plainly: Inhibition of HIPK1 (unknown origin) at 100 nM by ADP-Glo assay relative to control.
In assay [13] the test system is NCI-H1299. Description: Induction of apoptosis in human NCI-H1299 cells assessed as downregulation of mTOR expression incubated for 12 hrs by Western blotting analysis. The class given is functional, cell-based.
For assay [14], the system named is NCI-H1299. Put plainly: Inhibition of Wnt pathway in human NCI-H1299 cells assessed as downregulation of beta-catenin phosphorylation at 0.1 to 1 uM incubated for 12 hrs by Western blotting analysis. The class given is cell-based. Particulars: dose 0.1-1 µM.
Assay [15] has as its system NCI-H1299. Description: Induction of apoptosis in human NCI-H1299 cells assessed as viable cells at 2.5 uM incubated for 24 hrs by annexin V-FITC/PI staining based flow cytometric analysis (reference value: 95 %). To be noted: read-out: Activity. The class given is functional.
Assay [16] has as its system NCI-H1299. Description: Induction of apoptosis in human NCI-H1299 cells assessed as downregulation of AKT expression incubated for 12 hrs by Western blotting analysis. Format: functional, cell-based.

Structures are written as SMILES. Activity calls are given as the source filed them. No cut-off for these calls is given here.

Dual specificity protein kinase CLK4, sequence (Q9HAZ1 whole entry): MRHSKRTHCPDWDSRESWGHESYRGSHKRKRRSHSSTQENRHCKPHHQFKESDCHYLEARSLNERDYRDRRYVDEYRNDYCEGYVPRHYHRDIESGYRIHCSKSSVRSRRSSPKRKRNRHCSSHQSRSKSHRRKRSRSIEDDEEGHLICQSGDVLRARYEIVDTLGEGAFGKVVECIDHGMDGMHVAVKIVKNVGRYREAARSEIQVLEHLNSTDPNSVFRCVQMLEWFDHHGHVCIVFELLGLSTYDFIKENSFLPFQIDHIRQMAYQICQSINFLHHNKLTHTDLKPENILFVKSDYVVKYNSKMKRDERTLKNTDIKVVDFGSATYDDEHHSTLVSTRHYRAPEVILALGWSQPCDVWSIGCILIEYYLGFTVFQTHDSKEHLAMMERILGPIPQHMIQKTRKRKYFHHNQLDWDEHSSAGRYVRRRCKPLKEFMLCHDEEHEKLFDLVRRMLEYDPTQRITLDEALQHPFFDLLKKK
Dual specificity protein kinase CLK1, sequence (P49759 whole entry, looked up): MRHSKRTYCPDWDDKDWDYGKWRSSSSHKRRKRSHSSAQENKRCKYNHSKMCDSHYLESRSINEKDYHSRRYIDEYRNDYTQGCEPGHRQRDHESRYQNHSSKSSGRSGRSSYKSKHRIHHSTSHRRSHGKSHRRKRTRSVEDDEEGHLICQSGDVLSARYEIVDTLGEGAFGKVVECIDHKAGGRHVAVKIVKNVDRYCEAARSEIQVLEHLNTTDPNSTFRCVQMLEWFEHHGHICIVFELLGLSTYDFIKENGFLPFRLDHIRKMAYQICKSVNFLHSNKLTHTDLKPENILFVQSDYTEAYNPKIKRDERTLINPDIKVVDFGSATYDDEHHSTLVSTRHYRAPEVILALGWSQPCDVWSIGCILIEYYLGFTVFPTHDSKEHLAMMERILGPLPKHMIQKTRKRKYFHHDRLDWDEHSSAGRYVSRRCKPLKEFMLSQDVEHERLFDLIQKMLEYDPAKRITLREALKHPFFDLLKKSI
Homeodomain-interacting protein kinase 1 (Homo sapiens), sequence (Q86Z02 whole entry, looked up): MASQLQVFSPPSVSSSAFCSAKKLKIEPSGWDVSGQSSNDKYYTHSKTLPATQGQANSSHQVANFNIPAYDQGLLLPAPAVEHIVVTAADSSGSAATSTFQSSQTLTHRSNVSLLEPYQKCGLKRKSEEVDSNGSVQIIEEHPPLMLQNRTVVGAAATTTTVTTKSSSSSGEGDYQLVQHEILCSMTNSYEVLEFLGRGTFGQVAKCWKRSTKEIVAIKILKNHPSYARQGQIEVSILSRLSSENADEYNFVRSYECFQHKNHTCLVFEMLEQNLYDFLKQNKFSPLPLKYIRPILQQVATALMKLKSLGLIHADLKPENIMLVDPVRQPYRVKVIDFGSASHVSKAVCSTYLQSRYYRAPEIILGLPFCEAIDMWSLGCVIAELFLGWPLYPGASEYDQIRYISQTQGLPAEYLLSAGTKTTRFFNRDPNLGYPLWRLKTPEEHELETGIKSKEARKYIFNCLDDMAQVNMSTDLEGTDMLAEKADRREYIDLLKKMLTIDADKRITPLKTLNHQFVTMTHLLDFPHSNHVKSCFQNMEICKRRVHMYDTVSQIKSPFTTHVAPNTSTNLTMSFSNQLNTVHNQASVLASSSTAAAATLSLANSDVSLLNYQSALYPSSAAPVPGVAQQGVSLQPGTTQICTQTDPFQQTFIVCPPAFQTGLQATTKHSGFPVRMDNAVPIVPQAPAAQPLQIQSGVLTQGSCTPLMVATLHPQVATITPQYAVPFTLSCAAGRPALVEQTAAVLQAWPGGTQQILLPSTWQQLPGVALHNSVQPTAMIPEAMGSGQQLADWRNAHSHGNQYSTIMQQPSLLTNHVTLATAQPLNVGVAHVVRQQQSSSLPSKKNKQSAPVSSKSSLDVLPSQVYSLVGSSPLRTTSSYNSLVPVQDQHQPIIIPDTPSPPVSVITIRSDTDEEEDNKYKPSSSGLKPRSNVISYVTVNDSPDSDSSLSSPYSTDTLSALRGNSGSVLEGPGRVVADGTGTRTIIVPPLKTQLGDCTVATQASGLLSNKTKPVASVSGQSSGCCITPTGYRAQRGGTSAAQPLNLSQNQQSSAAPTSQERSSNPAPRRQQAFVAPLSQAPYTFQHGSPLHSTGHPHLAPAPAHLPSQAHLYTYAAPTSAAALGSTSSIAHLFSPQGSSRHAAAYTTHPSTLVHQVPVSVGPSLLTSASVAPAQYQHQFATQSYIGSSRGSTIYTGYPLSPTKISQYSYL
Description for HCC827: Antiproliferative activity against human HCC827 cells assessed as inhibition of cell growth incubated for 48 hrs by MTT assay

One may read the inhibition as the change of the read-out against control, counted positive when it falls. By IC50 is commonly meant the concentration that inhibits the measured activity by half. Higher therefore signals lower potency. Regarding `FC1(F)CCN(Cc2cncc(-c3ccc4[nH]nc(-c5nc(-c6ccco6)c(-c6ccco6)[nH]5)c4c3)c2)C1`, the Activity is 1.6% with NCI-H1299 [1]; 1.26% in the assay with NCI-H1299 [2]; 6.71% with NCI-H1299 [3]; 1.78% in the assay with NCI-H1299 [7]; 1.45% in the assay on NCI-H1299 [8]; “Dose-dependent-effect” with NCI-H1299 [13]. Moreover, in the assay on NCI-H1299 [16], the Activity result is “Dose-dependent-effect”. Also, the inhibition result (in assay [4]; in the assay on NCI-H1299 [6]; in the assay with NCI-H1299 [14]) was “Active” throughout. Besides, the half-maximal inhibitory concentration (IC50) in assay [5] amounted to 7.3 nM; with HCC827 it was 160 nM; with NCI-H1299 [11] it was 130 nM. For the same molecule, the inhibition entry in assay [9] was “Active; Showed Stronger Inhibition Compared To Indazole 1”; in [12] it was 51.4%. Further, the outcome in the assay with NCI-H1299 [10] was Active. Further, the viability at 2.5 µM in the assay with NCI-H1299 [15] is 82%.
